Experimental data from patent US20160375006A1, “USES OF PARALOG-SELECTIVE INHIBITORS OF GSK3 KINASES” (priority 2012, published 2016).
Where two headings read alike, the source gives them in different places.

Legend:
CLK1 = CLK1 (Homo sapiens, UniProt P49759); experiment: Carna kinase panel; assay type: biochemical
Experimental: (§1) This was completed utilizing one of two assays depending on the kinase being examined.
(§2) A solution of IMAP binding reagent (IMAP Screening Express kit; Molecular Devices) (60 μL) was added to each well and incubated for 30 minutes.
(§3) A solution of termination buffer (QuickScout Screening assist MSA; Carna Biosciences) (60 μL) was added to each well. The entire reaction mixture was then applied to a LabChip3000 system (Caliper Life Science) and the product and substrate peptide peaks were separated and quantified.

CDK5/p25 = CDK5/p25 (Homo sapiens, UniProt Q00535)
Experimental: as §1, §2, §3
(§4) The assay utilized was identical to that of the single point inhibitory activity determination (MSA) but run in dose response. […] A solution of termination buffer (QuickScout Screening assist MSA; Carna Biosciences) (60 μL) was added to each well. The entire reaction mixture was then applied to a LabChip3000 system (Caliper Life Science) and the product and substrate peptide peaks were separated and quantified.

FGFR4(N535K) = FGFR4(N535K) (Homo sapiens, UniProt P22455, N535K)
Experimental: as §1, §2, §3

EPHA5 = EPHA5 (Homo sapiens, UniProt P54756)
Experimental: as §1, §2, §3, §4

EPHA6 = EPHA6 (Homo sapiens, UniProt Q9UF33)
Experimental: as §1, §2, §3

PKD3 = PKD3 (Homo sapiens, UniProt O94806)
Experimental: as §1, §2, §3

NPM1-ALK = NPM1-ALK (Homo sapiens, UniProt Q9UM73)
Experimental: as §1, §2, §3

EPHA8 = EPHA8 (Homo sapiens, UniProt P29322)
Experimental: as §1, §2, §3, §4

TRKA = TRKA (Homo sapiens, UniProt P04629)
Experimental: as §1, §2, §3, §4

BMX = BMX (Homo sapiens, UniProt P51813)
Experimental: as §1, §2, §3, §4

BTK = BTK (Homo sapiens, UniProt Q06187)
Experimental: as §1, §2, §3, §4

PEK = PEK (Homo sapiens, UniProt Q9NZJ5)
Experimental: as §1, §2, §3

JAK2 = JAK2 (Homo sapiens, UniProt O60674)
Experimental: as §1, §2, §3, §4

MOS_Cascade = MOS_Cascade (Homo sapiens, UniProt P00540)
Experimental: as §1, §2, §3, §4

p70S6Kβ = p70S6Kβ (Homo sapiens, UniProt Q9UBS0)
Experimental: as §1, §2, §3, §4

PHKG1 = PHKG1 (Homo sapiens, UniProt Q16816)
Experimental: as §1, §2, §3, §4

CK1γ1 = CK1γ1 (Homo sapiens, UniProt Q9HCP0)
Experimental: as §1, §2, §3, §4

PKACγ = PKACγ (Homo sapiens, UniProt P22612)
Experimental: as §1, §2, §3, §4

CK1δ = CK1δ (Homo sapiens, UniProt P48730)
EGFR(T790M/L858R) = EGFR(T790M/L858R) (Homo sapiens, UniProt P00533, L858R/T790M)
Experimental: as §1, §2, §3, §4

PHKG2 = PHKG2 (Homo sapiens, UniProt P15735)
Experimental: as §1, §2, §3

EEF2K = EEF2K (Homo sapiens, UniProt O00418)
Experimental: as §1, §2, §3

PKCβ1 = PKCβ1 (Homo sapiens, UniProt P05771)
Experimental: as §1, §2, §3

[1] = test system: pGSK3α/β, β-catenin, CRMP2 in SH-SY5Y cells; conditions: SH-SY5Y cells, 1, 5, 10 and 30 μM, 24 hours
Experimental: The samples were incubated and gently rocked for 1 h before centrifuged at 12 000 g for 10 min. The supernatant total cell lysate was subject to subsequent western blot analysis. […] Membranes were incubated overnight with primary antibodies in a solution of Tris-buffered saline containing Tween 20 (TBST, Sigma) and 5% dry milk. Incubation of secondary antibodies was performed for 1 h at room temperature in a solution of 5% dry milk in TBST.

[2] = test system: audiogenic seizure phenotype; conditions: Fmr1 KO mice, single dose 30 mg/kg i.p.
[3] = test system: protein synthesis in hippocampal slices; conditions: Fmr1 knockout mice hippocampal slices, 10 μM
Experimental: 500 um hippocampal slices are recovered in ACSF for 3 hours, followed by incubation in GSK3ai or vehicle for an hour, with Actinomycin D (to block transcription) for the last half hour of drug incubation. Slices are then transferred to new chambers containing ACSF with drug/vehicle and S35 (a radiolabeled Met/Cys) for 30 minutes to measure protein synthesis. Slices are then processed and read in a scintillation counter to determine the rate of protein synthesis.

LIMK1 = molecular target: T1, LIMK1 (Homo sapiens, UniProt P53667); experiment: Carna kinase panel; assay type: biochemical
T1 construct: purchased Carna Biosciences
Experimental: as §1, §2, §3

GSK3α = GSK3α (Homo sapiens, UniProt P49840)
Experimental: as §1, §2, §3, §4

PLK4 = PLK4 (Homo sapiens, UniProt O00444)
TTK = TTK (Homo sapiens, UniProt P33981)
KIT(D816E) = KIT(D816E) (Homo sapiens, UniProt P10721, D816E)
LKB1 = LKB1 (Homo sapiens, UniProt Q15831)
MET(M1250T) = MET(M1250T) (Homo sapiens, UniProt P08581, M1250T)
MET(D1228H) = MET(D1228H) (Homo sapiens, UniProt P08581, D1228H)
BMPR1A = BMPR1A (Homo sapiens, UniProt P36894)
WEE1 = WEE1 (Homo sapiens, UniProt P30291)

Sequence of CDK5/p25 (Q00535 whole entry, species assumed): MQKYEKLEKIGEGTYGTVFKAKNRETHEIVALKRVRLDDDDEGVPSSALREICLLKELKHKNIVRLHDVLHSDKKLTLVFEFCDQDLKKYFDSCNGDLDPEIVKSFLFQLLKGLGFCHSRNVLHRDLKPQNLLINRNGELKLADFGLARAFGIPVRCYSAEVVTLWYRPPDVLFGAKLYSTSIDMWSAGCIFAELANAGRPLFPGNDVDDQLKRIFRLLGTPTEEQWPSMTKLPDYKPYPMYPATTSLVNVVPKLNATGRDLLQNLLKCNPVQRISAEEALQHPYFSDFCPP
Sequence of CDK5/p25 (Q15078 99-307 partner limits assumed, species assumed): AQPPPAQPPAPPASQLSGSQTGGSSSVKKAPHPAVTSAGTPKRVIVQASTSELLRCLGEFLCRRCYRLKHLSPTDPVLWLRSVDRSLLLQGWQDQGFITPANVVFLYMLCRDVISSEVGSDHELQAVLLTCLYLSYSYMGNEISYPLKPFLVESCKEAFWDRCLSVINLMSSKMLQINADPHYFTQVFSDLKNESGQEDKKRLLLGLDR
Sequence of GSK3α (P49840 whole entry): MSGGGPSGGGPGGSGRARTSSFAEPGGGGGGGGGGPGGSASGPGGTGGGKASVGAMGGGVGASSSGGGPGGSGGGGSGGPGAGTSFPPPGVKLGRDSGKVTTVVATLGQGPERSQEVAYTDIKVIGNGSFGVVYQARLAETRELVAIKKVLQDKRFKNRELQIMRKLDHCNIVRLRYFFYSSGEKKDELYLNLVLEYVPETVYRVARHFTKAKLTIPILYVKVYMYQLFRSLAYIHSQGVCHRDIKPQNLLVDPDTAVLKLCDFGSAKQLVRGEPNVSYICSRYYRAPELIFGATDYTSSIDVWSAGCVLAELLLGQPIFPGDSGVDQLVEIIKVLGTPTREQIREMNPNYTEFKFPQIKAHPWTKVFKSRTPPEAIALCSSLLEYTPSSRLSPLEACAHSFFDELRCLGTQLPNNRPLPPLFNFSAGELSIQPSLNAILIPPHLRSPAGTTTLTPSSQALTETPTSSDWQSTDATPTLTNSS
Sequence of CK1γ1 (Q9HCP0 whole entry): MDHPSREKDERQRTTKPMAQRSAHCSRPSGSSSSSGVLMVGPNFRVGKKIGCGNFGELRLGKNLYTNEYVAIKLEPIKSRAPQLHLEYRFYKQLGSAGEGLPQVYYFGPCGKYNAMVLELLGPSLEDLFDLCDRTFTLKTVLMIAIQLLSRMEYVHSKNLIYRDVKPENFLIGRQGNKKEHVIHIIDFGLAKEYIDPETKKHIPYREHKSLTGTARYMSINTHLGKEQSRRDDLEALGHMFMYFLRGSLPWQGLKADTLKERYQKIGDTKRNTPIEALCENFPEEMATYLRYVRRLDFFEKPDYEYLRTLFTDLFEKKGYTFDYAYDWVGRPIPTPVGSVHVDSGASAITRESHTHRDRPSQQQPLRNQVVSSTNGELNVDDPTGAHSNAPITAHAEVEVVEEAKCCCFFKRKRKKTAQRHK
Sequence of PKD3 (O94806 whole entry): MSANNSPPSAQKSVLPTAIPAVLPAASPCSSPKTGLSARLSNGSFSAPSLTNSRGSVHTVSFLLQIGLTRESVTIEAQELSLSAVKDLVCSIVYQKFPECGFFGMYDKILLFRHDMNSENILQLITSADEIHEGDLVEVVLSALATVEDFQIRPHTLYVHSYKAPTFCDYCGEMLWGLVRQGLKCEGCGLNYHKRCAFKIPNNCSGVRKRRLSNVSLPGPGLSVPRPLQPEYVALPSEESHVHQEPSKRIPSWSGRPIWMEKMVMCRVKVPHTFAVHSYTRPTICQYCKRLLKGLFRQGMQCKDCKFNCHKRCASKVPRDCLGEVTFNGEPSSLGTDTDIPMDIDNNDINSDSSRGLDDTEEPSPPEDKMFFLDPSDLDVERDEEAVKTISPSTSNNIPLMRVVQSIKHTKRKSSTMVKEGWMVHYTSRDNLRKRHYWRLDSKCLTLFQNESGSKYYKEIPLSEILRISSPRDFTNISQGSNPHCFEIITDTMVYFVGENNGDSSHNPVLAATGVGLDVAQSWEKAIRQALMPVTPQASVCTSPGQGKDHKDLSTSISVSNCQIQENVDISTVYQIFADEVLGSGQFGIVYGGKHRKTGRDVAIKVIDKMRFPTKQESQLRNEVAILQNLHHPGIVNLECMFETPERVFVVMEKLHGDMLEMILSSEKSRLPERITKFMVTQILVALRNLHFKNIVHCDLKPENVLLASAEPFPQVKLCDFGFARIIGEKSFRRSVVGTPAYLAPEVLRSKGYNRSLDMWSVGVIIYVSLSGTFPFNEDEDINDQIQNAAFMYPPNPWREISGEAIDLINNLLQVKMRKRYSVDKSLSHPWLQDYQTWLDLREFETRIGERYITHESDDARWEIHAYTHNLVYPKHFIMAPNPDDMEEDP
Sequence of PKACγ (P22612 whole entry): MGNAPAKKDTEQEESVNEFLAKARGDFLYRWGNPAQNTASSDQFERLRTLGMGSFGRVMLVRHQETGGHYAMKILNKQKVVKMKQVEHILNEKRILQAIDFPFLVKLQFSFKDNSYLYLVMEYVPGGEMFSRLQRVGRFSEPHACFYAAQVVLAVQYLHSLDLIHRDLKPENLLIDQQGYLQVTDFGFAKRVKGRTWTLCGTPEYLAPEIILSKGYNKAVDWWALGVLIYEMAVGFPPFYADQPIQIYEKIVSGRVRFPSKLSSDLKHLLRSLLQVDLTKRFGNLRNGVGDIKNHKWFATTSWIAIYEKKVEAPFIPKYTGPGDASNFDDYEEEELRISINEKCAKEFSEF
Sequence of PHKG2 (P15735 whole entry): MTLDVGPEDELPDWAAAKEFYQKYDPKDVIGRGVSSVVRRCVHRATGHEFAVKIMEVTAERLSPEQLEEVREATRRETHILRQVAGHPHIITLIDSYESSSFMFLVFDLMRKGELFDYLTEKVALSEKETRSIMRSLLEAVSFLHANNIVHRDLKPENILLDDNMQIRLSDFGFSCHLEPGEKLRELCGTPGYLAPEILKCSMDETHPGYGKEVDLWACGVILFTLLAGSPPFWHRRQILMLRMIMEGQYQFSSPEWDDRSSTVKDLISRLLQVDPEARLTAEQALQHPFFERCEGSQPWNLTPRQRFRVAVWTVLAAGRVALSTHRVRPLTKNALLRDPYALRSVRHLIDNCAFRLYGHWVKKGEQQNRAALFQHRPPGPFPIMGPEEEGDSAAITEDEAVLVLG
Sequence of BMX (P51813 whole entry): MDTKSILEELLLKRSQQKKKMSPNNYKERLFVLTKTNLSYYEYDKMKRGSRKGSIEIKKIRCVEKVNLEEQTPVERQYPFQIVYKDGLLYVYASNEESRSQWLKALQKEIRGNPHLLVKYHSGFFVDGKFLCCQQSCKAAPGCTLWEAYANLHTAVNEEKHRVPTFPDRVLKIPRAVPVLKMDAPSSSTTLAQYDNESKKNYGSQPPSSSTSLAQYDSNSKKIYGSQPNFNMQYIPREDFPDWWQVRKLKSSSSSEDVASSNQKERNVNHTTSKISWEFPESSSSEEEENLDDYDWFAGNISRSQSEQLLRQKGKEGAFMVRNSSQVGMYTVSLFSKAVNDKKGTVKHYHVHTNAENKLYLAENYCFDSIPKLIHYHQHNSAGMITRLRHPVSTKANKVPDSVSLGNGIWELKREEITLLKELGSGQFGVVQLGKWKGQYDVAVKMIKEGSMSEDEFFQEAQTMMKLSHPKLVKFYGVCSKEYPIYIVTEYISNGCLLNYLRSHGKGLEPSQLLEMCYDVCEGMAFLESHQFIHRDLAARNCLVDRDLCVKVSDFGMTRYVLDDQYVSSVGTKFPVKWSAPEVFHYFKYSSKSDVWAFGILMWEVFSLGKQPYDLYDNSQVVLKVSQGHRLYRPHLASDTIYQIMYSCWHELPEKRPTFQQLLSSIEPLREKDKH
Sequence of PHKG1 (Q16816 whole entry): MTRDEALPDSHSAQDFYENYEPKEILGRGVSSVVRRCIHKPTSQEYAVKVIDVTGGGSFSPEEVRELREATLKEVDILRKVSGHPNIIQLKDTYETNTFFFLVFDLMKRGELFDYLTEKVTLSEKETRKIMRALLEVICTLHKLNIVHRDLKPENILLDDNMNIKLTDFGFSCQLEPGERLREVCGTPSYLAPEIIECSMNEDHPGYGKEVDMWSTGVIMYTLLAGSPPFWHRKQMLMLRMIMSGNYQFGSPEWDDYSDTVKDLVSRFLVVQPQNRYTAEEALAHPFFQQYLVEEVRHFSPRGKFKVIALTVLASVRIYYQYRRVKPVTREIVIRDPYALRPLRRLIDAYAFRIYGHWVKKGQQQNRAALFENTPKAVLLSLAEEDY
Sequence of MOS_Cascade (P00540 whole entry): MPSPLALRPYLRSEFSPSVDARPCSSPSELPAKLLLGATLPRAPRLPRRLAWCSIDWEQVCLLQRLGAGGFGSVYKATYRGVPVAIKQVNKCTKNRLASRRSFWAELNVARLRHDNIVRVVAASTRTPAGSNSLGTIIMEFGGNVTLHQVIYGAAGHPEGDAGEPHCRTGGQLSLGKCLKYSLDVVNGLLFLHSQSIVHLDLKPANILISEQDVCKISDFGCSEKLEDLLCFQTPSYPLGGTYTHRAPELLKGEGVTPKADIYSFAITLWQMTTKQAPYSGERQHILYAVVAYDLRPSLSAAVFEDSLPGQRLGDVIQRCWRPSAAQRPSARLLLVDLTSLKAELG
Sequence of CK1δ (P48730 whole entry): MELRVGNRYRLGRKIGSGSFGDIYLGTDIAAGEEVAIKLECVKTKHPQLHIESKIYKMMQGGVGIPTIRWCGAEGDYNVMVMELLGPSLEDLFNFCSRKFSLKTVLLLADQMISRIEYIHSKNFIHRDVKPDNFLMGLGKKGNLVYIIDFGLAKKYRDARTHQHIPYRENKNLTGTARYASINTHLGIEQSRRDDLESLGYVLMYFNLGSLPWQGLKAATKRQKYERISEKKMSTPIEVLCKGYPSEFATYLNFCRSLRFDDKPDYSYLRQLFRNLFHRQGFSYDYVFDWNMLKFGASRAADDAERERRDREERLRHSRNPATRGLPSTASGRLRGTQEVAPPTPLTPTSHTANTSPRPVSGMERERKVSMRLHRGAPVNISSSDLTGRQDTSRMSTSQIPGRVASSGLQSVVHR

CC[C@@]1(c2ccccc2)C2=C(CC(C)(C)CC2=O)Nc2n[nH]cc21 [BRD0705]
% Inhibition at 10 μM (CLK1): −7.1% | % Inhibition at 10 μM (CDK5/p25; CDK5/p25): 52.0% | IC50 (CDK5/p25; read-out: IC50 CDK5/p25): 9.2 µM | % Inhibition at 10 μM (FGFR4(N535K)): 22.1% | % Inhibition at 10 μM (EPHA5): 12.7% | % Inhibition at 10 μM (EPHA6): 7.4% | % Inhibition at 10 μM (PKD3): 3.9% | % Inhibition at 10 μM (NPM1-ALK): 3.7% | % Inhibition at 10 μM (EPHA8): 2.9% | % Inhibition at 10 μM (TRKA): 2.9% | % Inhibition at 10 μM (BMX): 2.7% | % Inhibition at 10 μM (BTK): 2.1% | % Inhibition at 10 μM (PEK): 1.7% | % Inhibition at 10 μM (JAK2): −0.5% | % Inhibition at 10 μM (MOS_Cascade): −1.0% | % Inhibition at 10 μM (p70S6Kβ): −2.1% | % Inhibition at 10 μM (PHKG1): −2.5% | % Inhibition at 10 μM (CK1γ1): −3.4% | % Inhibition at 10 μM (PKACγ): −3.6% | % Inhibition at 10 μM (CK1δ): −3.9% | % Inhibition at 10 μM (EGFR(T790M/L858R)): −4.0% | % Inhibition at 10 μM (PHKG2): −5.8% | % Inhibition at 10 μM (EEF2K): −6.4% | % Inhibition at 10 μM (PKCβ1): −6.5% | pGSK3αY279 level (Western blot) [1]: dose dependent decrease | pGSK3βY216 and β-catenin levels (Western blot) [1]: without effecting | Audiogenic seizure phenotype [2]: reduces audiogenic seizures | Excess protein synthesis [3]: correction of excess protein synthesis

CC(C)(C)Cc1[nH]nc2c1[C@](C)(c1ccccc1)C1=C(CC(C)(C)CC1=O)N2 [BRD3731]
% Inhibition 10 μM (CLK1; 10 μM): 3.1% | % Inhibition 10 μM (LIMK1): 7.5% | % Inhibition 10 μM (GSK3α): 96.8% | Fold Selectivity (GSK3α): 7.8 fold | IC50 (GSK3α): 0.211 µM | IC50 (CDK5/p25; CDK5/p25): 8.9 µM | % Inhibition 10 μM (CDK5/p25; CDK5/p25, 10 μM): 48.3% | Fold Selectivity (CDK5/p25; IC50 CDK5/p25 / IC50 GSK3β): 331.0 fold | % Inhibition 10 μM (EPHA5; 10 μM): −5.5% | % Inhibition 10 μM (EPHA6; 10 μM): 9.6% | % Inhibition 10 μM (PKD3; 10 μM): 2.6% | % Inhibition 10 μM (NPM1-ALK; 10 μM): −2.1% | % Inhibition 10 μM (EPHA8; 10 μM): −1.9% | % Inhibition 10 μM (TRKA; 10 μM): 12.0% | % Inhibition 10 μM (BMX; 10 μM): −3.8% | % Inhibition 10 μM (BTK; 10 μM): 0.3% | % Inhibition 10 μM (PEK; 10 μM): 1.4% | % Inhibition 10 μM (JAK2; 10 μM): 3.0% | % Inhibition 10 μM (MOS_Cascade; 10 μM): −9.5% | % Inhibition 10 μM (p70S6Kβ; 10 μM): 12.6% | % Inhibition 10 μM (PHKG1; 10 μM): 13.9% | % Inhibition 10 μM (CK1γ1; 10 μM): 1.2% | % Inhibition 10 μM (PKACγ; 10 μM): 6.5% | % Inhibition 10 μM (CK1δ; 10 μM): 10.7% | % Inhibition 10 μM (EGFR(T790M/L858R); 10 μM): −4.0% | % Inhibition 10 μM (PHKG2; 10 μM): 6.0% | % Inhibition 10 μM (EEF2K; 10 μM): 3.9% | % Inhibition 10 μM (PKCβ1; 10 μM): 4.1% | % Inhibition 10 μM (PLK4): 14.3% | % Inhibition 10 μM (TTK): 5.4% | % Inhibition 10 μM (KIT(D816E)): 3.9% | % Inhibition 10 μM (LKB1): 3.4% | % Inhibition 10 μM (MET(M1250T)): 0.8% | % Inhibition 10 μM (MET(D1228H)): 0.0% | % Inhibition 10 μM (BMPR1A): −4.4% | % Inhibition 10 μM (WEE1): −9.1%
